Values of other authors as cited in patent US9163134B2, “Highly functional additive for polymerization and method for preparing vinyl chloride seeds using the same” (LG CHEM, LTD., priority 2011, dated 2015).
Values after ≈ are worked out from the molar mass of the structure shown.

SMILES | Solubility in water (mg/L) | Solubility in water [µg/mL]
CCO [C2H5—OH] | ∞ | –
CCCCCCO [C6H13—OH] | – | 6260 (≈ 61.3 mM)
CCCCCCCCO [C8H17—OH] | – | 540 (≈ 4.15 mM)
CCCCCCCCCCO [C10H21—OH] | – | 37 (≈ 0.234 mM)
